Results reported in PubChem BioAssay AID1963444 (Molecular Pharmacology Branch, DTP, NCI, 2024).
Where “and” joins values, the source holds several entries; their conditions need not be identical. Equal values may be shown once.

System: HSSY-II complex spheroid growth, percent test/control
Test: Anticancer human tumor HSSY-II cell line growth inhibition [Asc];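 further: spheroids exposed to drug for 7 days before reading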
Settings: for viability, T/C: stronger effect = lower value; active means viability on the fitted dose curve at most 10% of control; inactive means the rest
In short: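 Tumor cells were grown as multicellular spheroids with stromal HUVEC and mesenchymal stem cells and treated singly or in combination. Concentrations fell in half-log steps from the clinical Cmax, or from 10 microM where none was known.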

C=C(F)C(=O)N1CCN(c2nc(OCC3CCCN3C)nc3c2CCN(c2cccc4cccc(Cl)c24)C3)CC1CC#N (configuration not stated) + CCN1C(C(=O)NC23CCC(C(=O)O)(CC2)CC3)C(c2cccc(Cl)c2F)C2(C(=O)Nc3cc(Cl)ccc32)C12CCCCC2
340 nM: IC50 (curve of first compound, second compound 0.0949 µM)
inactive: viability, T/C (second compound 0.03 µM, first compound 0.0316 µM) 93.7% | viability, T/C (second compound 0.03 µM, first compound 0.1 µM) 82.3% | viability, T/C (second compound 0.03 µM, first compound 0.316 µM) 77.1% | viability, T/C (second compound 0.03 µM, first compound 1 µM) 55.2% | viability, T/C (second compound 0.0949 µM, first compound 0.0316 µM) 64.5% | viability, T/C (second compound 0.0949 µM, first compound 0.1 µM) 66.6% | viability, T/C (second compound 0.0949 µM, first compound 0.316 µM) 49.1% | viability, T/C (second compound 0.0949 µM, first compound 1 µM) 26.5% | viability, T/C (second compound 0.3 µM, first compound 0.0316 µM) 26.3% | viability, T/C (second compound 0.3 µM, first compound 0.1 µM) 23.1% | viability, T/C (second compound 0.3 µM, first compound 0.316 µM) 19.9% | viability, T/C (second compound 0.3 µM, first compound 1 µM) 13.4%
active: viability, T/C (second compound 0.03 µM, first compound 3.16 µM) 1.72% | viability, T/C (second compound 0.03 µM, first compound 10 µM) 0.13% | viability, T/C (second compound 0.0949 µM, first compound 3.16 µM) 0.75% | viability, T/C (second compound 0.0949 µM, first compound 10 µM) 0.1% | viability, T/C (second compound 0.3 µM, first compound 3.16 µM) 0.42% | viability, T/C (second compound 0.3 µM, first compound 10 µM) 0.12% | viability, T/C (second compound 0.949 µM, first compound 0.0316 µM) 8.79% | viability, T/C (second compound 0.949 µM, first compound 0.1 µM) 7.11% | viability, T/C (second compound 0.949 µM, first compound 0.316 µM) 6.61% | viability, T/C (second compound 0.949 µM, first compound 1 µM) 3.73% | viability, T/C (second compound 0.949 µM, first compound 3.16 µM) 0.07% | viability, T/C (second compound 0.949 µM, first compound 10 µM) 0.12% | viability, T/C (second compound 3 µM, first compound 0.0316 µM) 3.47% | viability, T/C (second compound 3 µM, first compound 0.1 µM) 2.72% | viability, T/C (second compound 3 µM, first compound 0.316 µM) 2.77% | viability, T/C (second compound 3 µM, first compound 1 µM) 1.35% | viability, T/C (second compound 3 µM, first compound 3.16 µM) 0.15% | viability, T/C (second compound 3 µM, first compound 10 µM) 0.21%
1090 nM: IC50 (curve of first compound, second compound 0.03 µM)
< 31.6 nM: IC50 (curve of first compound, second compound 0.3 µM) | IC50 (curve of first compound, second compound 0.949 µM) | IC50 (curve of first compound, second compound 3 µM)

Cc1nc(N2CCC3(CC2)COC(C)C3N)c(CO)nc1Sc1ccnc(N)c1Cl (configuration not stated)
> 3000 nM: IC50 (curve of compound)
inactive: viability, T/C (compound 0.00949 µM) 96.6% and 103% and 111% | viability, T/C (compound 0.03 µM) 96.7% and 113% and 106% | viability, T/C (compound 0.0949 µM) 96.6% and 108% and 102% | viability, T/C (compound 0.3 µM) 99.3% and 106% and 105% | viability, T/C (compound 0.949 µM) 91.7% (2×) and 88.5% | viability, T/C (compound 3 µM) 67.1% and 75.8% and 68.5%

COc1c(OCCCN2CCOCC2)ccc2c3n(c(=NC(=O)c4cnc(N)nc4)nc12)CCN3 + CNC(C)C(=O)NC1CN(S(=O)(=O)c2cccc(S(=O)(=O)N3CCC4CCC(C(=O)NC(c5ccccc5)c5ccccc5)N4C(=O)C(NC(=O)C(C)NC)C3)c2)CCC2CCC(C(=O)NC(c3ccccc3)c3ccccc3)N2C1=O
45.9 nM: IC50 (curve of first compound, second compound 0.316 µM)
44 nM: IC50 (curve of first compound, second compound 0.01 µM)
45.1 nM: IC50 (curve of first compound, second compound 0.0316 µM)
54 nM: IC50 (curve of first compound, second compound 1 µM)
34.9 nM: IC50 (curve of first compound, second compound 0.1 µM)
inactive: viability, T/C (second compound 0.01 µM, first compound 0.00316 µM) 84.3% | viability, T/C (second compound 0.01 µM, first compound 0.01 µM) 79.6% | viability, T/C (second compound 0.01 µM, first compound 0.0316 µM) 51.4% | viability, T/C (second compound 0.01 µM, first compound 0.1 µM) 36.8% | viability, T/C (second compound 0.01 µM, first compound 0.316 µM) 22.4% | viability, T/C (second compound 0.01 µM, first compound 1 µM) 12% | viability, T/C (second compound 0.0316 µM, first compound 0.00316 µM) 82% | viability, T/C (second compound 0.0316 µM, first compound 0.01 µM) 77.5% | viability, T/C (second compound 0.0316 µM, first compound 0.0316 µM) 54.8% | viability, T/C (second compound 0.0316 µM, first compound 0.1 µM) 34.3% | viability, T/C (second compound 0.0316 µM, first compound 0.316 µM) 21.8% | viability, T/C (second compound 0.0316 µM, first compound 1 µM) 9.94% | viability, T/C (second compound 0.1 µM, first compound 0.00316 µM) 81.2% | viability, T/C (second compound 0.1 µM, first compound 0.01 µM) 64.9% | viability, T/C (second compound 0.1 µM, first compound 0.0316 µM) 49% | viability, T/C (second compound 0.1 µM, first compound 0.1 µM) 38.8% | viability, T/C (second compound 0.1 µM, first compound 0.316 µM) 24.7% | viability, T/C (second compound 0.1 µM, first compound 1 µM) 10.4% | viability, T/C (second compound 0.316 µM, first compound 0.00316 µM) 86.4% | viability, T/C (second compound 0.316 µM, first compound 0.01 µM) 80.1% | viability, T/C (second compound 0.316 µM, first compound 0.0316 µM) 53.8% | viability, T/C (second compound 0.316 µM, first compound 0.1 µM) 34.5% | viability, T/C (second compound 0.316 µM, first compound 0.316 µM) 24.2% | viability, T/C (second compound 0.316 µM, first compound 1 µM) 8.5% | viability, T/C (second compound 1 µM, first compound 0.00316 µM) 80.1% | viability, T/C (second compound 1 µM, first compound 0.01 µM) 73.8% | viability, T/C (second compound 1 µM, first compound 0.0316 µM) 63.2% | viability, T/C (second compound 1 µM, first compound 0.1 µM) 33.7% | viability, T/C (second compound 1 µM, first compound 0.316 µM) 24.7% | viability, T/C (second compound 1 µM, first compound 1 µM) 9.52%
